# Measurements reported in paper PMC12396409, “Screening and hit evaluation of a microbial metabolite library against the pathogenic Plasmodium falciparum and Toxoplasma gondii parasites” (International Journal for Parasitology: Drugs and Drug …, 2025).
# Where two headings read alike, the source gives them in different places.
# Experiments:
# [1] = test system: P. falciparum 3D7 parasites; assay: P. falciparum growth inhibition assay, 1-cycle (72 h treatment), SYBR DNA staining (library screen at 2 μg/mL and dose-response); format: cell-based, Plasmodium falciparum; settings: for activity at 2 µg/mL: Plasmodium falciparum, 3D7
# [2] = test system: P. falciparum 3D7 parasites; assay: P. falciparum growth inhibition assay, 2-cycle (120 h treatment), delayed-death screen and dose-response; format: cell-based, Plasmodium falciparum; settings: for activity at 2 µg/mL: Plasmodium falciparum, 3D7
# [3] = test system: T. gondii RH strain (RH-Tub-eYFP) tachyzoites; assay: microbe, parasite or virus in culture; format: cell-based, Toxoplasma gondii
# [4] = P. falciparum 3D7, 72 h, library screen at 2 μg/mL, % growth, replicate 1
# [5] = P. falciparum 3D7, 72 h, library screen at 2 μg/mL, % growth, replicate 2
# [6] = P. falciparum 3D7, 120 h, library screen at 2 μg/mL, % growth, replicate 1
# [7] = T. gondii RH, 72 h, library screen at 2 μg/mL, % growth, replicate 1
# [8] = T. gondii RH, 72 h, library screen at 2 μg/mL, % growth, replicate 2
# [9] = library screen at 2 μg/mL, 72 h, % growth, replicate 1
# [10] = library screen at 2 μg/mL, 72 h, % growth, replicate 2
# [11] = library screen at 2 μg/mL, 120 h, % growth, replicate 1
# [12] = library screen at 2 μg/mL, 120 h, % growth, replicate 2
# [13] = P. falciparum, 72 h, parasite screen 2 μg/mL, % growth, replicate 1, read-out: Pf_72h_%Growth_Rep1
# [14] = P. falciparum, 72 h, parasite screen 2 μg/mL, % growth, replicate 2, read-out: Pf_72h_%Growth_Rep2
# [15] = P. falciparum, 120 h, parasite screen 2 μg/mL, % growth, replicate 1, read-out: Pf_120h_%Growth_Rep1
# [16] = P. falciparum, 120 h, parasite screen 2 μg/mL, % growth, replicate 2, read-out: Pf_120h_%Growth_Rep2
# [17] = P. falciparum, 72 h, screen at 2 μg/mL, replicate 1
# [18] = P. falciparum, 72 h, screen at 2 μg/mL, replicate 2
# [19] = P. falciparum, 120 h, screen at 2 μg/mL, replicate 1
# [20] = P. falciparum, 120 h, screen at 2 μg/mL, replicate 2
# [21] = T. gondii, 72 h, screen at 2 μg/mL, replicate 1
# [22] = T. gondii, 72 h, screen at 2 μg/mL, replicate 2
# [23] = T. gondii, 72 h, 2 μg/mL; values are growth (% of control)
compound,measurement,setting,value
CC[C@H](C)C(=O)O[C@H]1C[C@@H](C)C=C2C=C[C@H](C)[C@H](CC[C@@H]3C[C@@H](O)CC(=O)O3)[C@H]21 [BIA-L1264],Pf_72h_%Growth_Rep1,[1]; [4],70.29%
same,Pf_72h_%Growth_Rep2,[1]; [5],102.36%
same,Pf_120h_%Growth_Rep2,[2],93.18%
same,Pf_120h_%Growth_Rep1,[2]; [6],89.66%
same,Tg_72h_%Growth_Rep1,[3]; [7],3.18%
same,Tg_72h_%Growth_Rep2,[3]; [8],2.54%
COc1c2c(cc3c1c(=O)c1ccccc1n3C)OCO2 [Evoxanthine],Pf_72h_%Growth_Rep1,[1]; [9],81.42%
same,Pf_72h_%Growth_Rep2,[1]; [10],82.46%
same,Pf_120h_%Growth_Rep1,[2]; [11],87.52%
same,Pf_120h_%Growth_Rep2,[2]; [12],89.49%
same,Tg_72h_%Growth_Rep1,[3]; [9],136.78%
same,Tg_72h_%Growth_Rep2,[3]; [10],86.81%
CCCC[C@@]1(OC(=O)CCC(=O)O)CC[C@]2(CC[C@H](C)[C@@H](C/C=C(C)/C=C/[C@H](O)[C@@H](C)/C=C/C(=O)O)O2)O[C@H]1/C=C/C(C)=C/C(=O)O [Reveromycin A],activity at 2 µg/mL,[1]; [13],75.9%
same,activity at 2 µg/mL,[1]; [14],65.4%
same,activity at 2 µg/mL,[2]; [15],69.8%
same,activity at 2 µg/mL,[2]; [16],88.5%
same,percent parasite growth at 2 µg/mL,"[3]; Toxoplasma gondii, 72 h, T. gondii, 72 h, parasite screen 2 μg/mL, % growth, replicate 1; read-out: Tg_72h_%Growth_Rep1",119%
same,percent parasite growth at 2 µg/mL,"[3]; Toxoplasma gondii, 72 h, T. gondii, 72 h, parasite screen 2 μg/mL, % growth, replicate 2; read-out: Tg_72h_%Growth_Rep2",88.8%
COc1cc([C@H]2[C@@]3(O)C[C@H]4C[C@]2(O)[C@](O)(C(=O)O4)[C@H]3C(=O)c2ccccc2)oc(=O)c1 [Deoxyenterocin],Pf_72h_%Growth_Rep1,[1]; [17],87.29%
same,Pf_72h_%Growth_Rep2,[1]; [18],90.62%
same,Pf_120h_%Growth_Rep1,[2]; [19],64.95%
same,Pf_120h_%Growth_Rep2,[2]; [20],102.75%
same,Tg_72h_%Growth_Rep1,[3]; [21],127.64%
same,Tg_72h_%Growth_Rep2,[3]; [22],104.18%
CCCCCC1=C/C(=C/c2[nH]c(-c3ccc[nH]3)cc2OC)N=C1C [Prodigiosin],activity at 2 µg/mL,[1]; [13],5.96%
same,activity at 2 µg/mL,[1]; [14],4.13%
same,activity at 2 µg/mL,[2]; [15],-0.86%
same,activity at 2 µg/mL,[2]; [16],19.4%
same,Mean,"[3]; T. gondii, 72 h, 2 μg/mL; mean of both replicates, growth (% of control)",25.60
same,Replicate 1,[3]; [23],39.74
same,Replicate 2,[3]; [23],11.46
same,percent parasite growth at 2 µg/mL,"[3]; Toxoplasma gondii; T. gondii, 72 h, parasite screen 2 μg/mL, % growth, replicate 1; read-out: Tg_72h_%Growth_Rep1",39.7%
same,percent parasite growth at 2 µg/mL,"[3]; Toxoplasma gondii; T. gondii, 72 h, parasite screen 2 μg/mL, % growth, replicate 2; read-out: Tg_72h_%Growth_Rep2",11.5%
CC(=O)O[C@H]1CCC2(C)C3=C(CCC2C1(C)C)[C@@]1(C)CC[C@@H](C(C)CCC=C(C)C)[C@]1(C)CC3 (stereo partly drawn) [Euphol acetate],Pf_72h_%Growth_Rep1,[1]; [9],66.07%
same,Pf_72h_%Growth_Rep2,[1]; [10],91.20%
same,Pf_120h_%Growth_Rep1,[2]; [11],60.77%
same,Pf_120h_%Growth_Rep2,[2]; [12],92.36%
same,Tg_72h_%Growth_Rep1,[3]; [9],114.80%
same,Tg_72h_%Growth_Rep2,[3]; [10],105.35%
O=C1N[C@@H](Cc2ccccc2)C(=O)N[C@H]1Cc1ccccc1 [Cyclo(L-Phe-L-Phe)],Pf_72h_%Growth_Rep1,[1]; [17],87.79%
same,Pf_72h_%Growth_Rep2,[1]; [18],85.43%
same,Pf_120h_%Growth_Rep1,[2]; [19],99.78%
same,Pf_120h_%Growth_Rep2,[2]; [20],97.44%
same,Tg_72h_%Growth_Rep1,[3]; [21],128.27%
same,Tg_72h_%Growth_Rep2,[3]; [22],97.95%
CC1=C[C@]2(C)/C=C(C)/C=C/C[C@@H](O)/C=C3C=C/C(=C4\C(=O)O[C@]2(C[C@@H]1C)C4=O)OC/3 [Spirohexenolide A],Pf_72h_%Growth_Rep1,"[1]; P. falciparum, 72 h, parasite screen 2 μg/mL, % growth, replicate 1",8.85%
same,Pf_72h_%Growth_Rep2,"[1]; P. falciparum, 72 h, parasite screen 2 μg/mL, % growth, replicate 2",0.46%
same,Pf_120h_%Growth_Rep1,"[2]; P. falciparum, 120 h, parasite screen 2 μg/mL, % growth, replicate 1",19.42%
same,Pf_120h_%Growth_Rep2,"[2]; P. falciparum, 120 h, parasite screen 2 μg/mL, % growth, replicate 2",-9.19%
same,Tg_72h_%Growth_Rep1,"[3]; T. gondii, 72 h, parasite screen 2 μg/mL, % growth, replicate 1",115.19%
same,Tg_72h_%Growth_Rep2,"[3]; T. gondii, 72 h, parasite screen 2 μg/mL, % growth, replicate 2",70.63%
COC1=C(OC)C(=O)[C@@H](C)[C@H](C)C1=O [BIA-G1680],Pf_72h_%Growth_Rep1,[1]; [4],4.48%
same,Pf_72h_%Growth_Rep2,[1]; [5],3.13%
same,Pf_120h_%Growth_Rep1,[2]; [6],27.26%
same,Pf_120h_%Growth_Rep2,"[2]; P. falciparum 3D7, 120 h, library screen at 2 μg/mL, % growth, replicate 2",12.29%
same,Tg_72h_%Growth_Rep1,[3]; [7],146.51%
same,Tg_72h_%Growth_Rep2,[3]; [8],97.35%
